No end group written: not given here.
Tests used:
[1] = test system: S. aureus ATCC 25923; experiment: Membrane depolarization DiSC3(5); type: cell-based, Staphylococcus aureus; settings: 2 × MIC, DiSC3(5) fluorescence
Method: (§1) Membrane depolarization activities of omiganan and retro-omiganan were evaluated using DiSC3(5) (3,3′-dipropylthiadicarbocyanine iodide; Thermo Fischer Scientific, Invitrogen™). The S. aureus ATCC 25923 and S. aureus ATCC 33591 strains were grown at 37 °C up to a mid-log phase (approx. 4 h) in the Mueller–Hinton broth. The cultures were centrifuged (3500 rpm, 7 min) and washed with a 20 mM glucose solution in HEPES buffer (5 mM, pH 7.2). The cells were resuspended in a 5 mM HEPES buffer supplemented with 20 mM glucose and 100 mM KCl (pH 7.2) to an OD 0.05 at 600 nm. The final concentration of the dye was 0.4 μM. The fluorescence was monitored at 20 °C (λex 620 nm and λem 678 nm) with Fluoroskan Ascent FL (Thermo Fisher Scientific) fluorometer. […] A HEPES solution with glucose was used as a negative control. The measurements were conducted twice to ensure the reproducibility.

[2] = test system: S. aureus ATCC 33591 (MRSA); experiment: Membrane depolarization DiSC3(5); type: cell-based, Staphylococcus aureus; settings: 2 × MIC, DiSC3(5) fluorescence
Method: as §1

[3] = test system: S. aureus ATCC 25923; experiment: microbe, parasite or virus in culture
How it was run: (§2)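 MICs by CLSI broth microdilution in Mueller–Hinton broth (Ca²⁺ 50 mg/L added for daptomycin), read as lowest concentration inhibiting visible growth. MBEC on 24 h biofilms (0.5 × 10^7 CFU/mL, 37 °C) and MBIC with compound present during 24 h growth, both read by resazurin; triplicates.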

[4] = test system: S. aureus ATCC 33591 (MRSA); experiment: microbe, parasite or virus in culture
How it was run: as §2

[5] = S. aureus ATCC 33591 (MRSA) biofilm treated under flow with Omiganan (half MBEC) for 24 h
[6] = S. aureus ATCC 33591 (MRSA) biofilm treated under flow with Omiganan (half MBEC) for 48 h
[7] = S. aureus ATCC 33591 (MRSA) biofilm treated under flow with Omiganan (half MBEC) for 72 h
[8] = S. aureus ATCC 33591 (MRSA) biofilm treated under flow with Retro-Omiganan (half MBEC) for 24 h
[9] = S. aureus ATCC 33591 (MRSA) biofilm treated under flow with Retro-Omiganan (half MBEC) for 48 h
[10] = S. aureus ATCC 33591 (MRSA) biofilm treated under flow with Retro-Omiganan (half MBEC) for 72 h
[11] = S. aureus ATCC 33591 (MRSA), time 0 h (baseline, before peptide exposure)

Row | Substance | membrane depolarization [1] | membrane depolarization [2] | MIC ([3]; ATCC 25923, 0 h) [µg/mL] | MIC ([3]; ATCC 25923, 24 h) [µg/mL] | MIC ([3]; ATCC 25923, 48 h) [µg/mL] | MIC ([3]; ATCC 25923, 72 h) [µg/mL] | MIC [4, 5] [µg/mL] | MIC [4, 6] [µg/mL] | MIC [4, 7] [µg/mL] | MIC [4, 8] [µg/mL] | MIC [4, 9] [µg/mL] | MIC [4, 10] [µg/mL] | MIC [4, 11] [µg/mL] | MIC ([3]; S. aureus 25923, time 0 h (baseline, before peptide exposure)) [µg/mL] | MIC ([3]; S. aureus 25923 biofilm treated under flow with Omiganan (half MBEC) for 24 h) [µg/mL] | MIC ([3]; S. aureus 25923 biofilm treated under flow with Omiganan (half MBEC) for 48 h) [µg/mL] | MIC ([3]; S. aureus 25923 biofilm treated under flow with Omiganan (half MBEC) for 72 h) [µg/mL] | MIC ([3]; S. aureus 25923 biofilm treated under flow with Retro-Omiganan (half MBEC) for 24 h) [µg/mL] | MIC ([3]; S. aureus 25923 biofilm treated under flow with Retro-Omiganan (half MBEC) for 48 h) [µg/mL] | MIC ([3]; S. aureus 25923 biofilm treated under flow with Retro-Omiganan (half MBEC) for 72 h) [µg/mL]
1 | ILRWPWWPWRRK-NH2 [Omiganan] | cause depolarization of S. aureus membranes immediately after the addition | cause depolarization of S. aureus membranes immediately after the addition | 16.0 | 8.0 | 8.0 | 8.0 | 8.0 | 8.0 | 8.0 | 8.0 | 8.0 | 8.0 | 16.0 | – | – | – | – | – | – | –
2 | KRRWPWWPWRLI-NH2 [Retro-Omiganan] | cause depolarization of S. aureus membranes immediately after the addition | cause depolarization of S. aureus membranes immediately after the addition | – | – | – | – | 8.0 | 8.0 | 8.0 | 8.0 | 8.0 | 8.0 | 16.0 | 8.0 | 8.0 | 8.0 | 8.0 | 8.0 | 8.0 | 8.0

Reference: publication PMC12055641, “The Study of Antistaphylococcal Potential of Omiganan and Retro-Omiganan Under Flow Conditions” (Probiotics and Antimicrobial Proteins, 2024)
